Target: T1, GLP-1R (Homo sapiens, UniProt P43220)
T1 construct: host or cells: CHO cells
Test: GLP-1R activation cAMP assay (Assay 1 or Assay 2)
Assay type: cell-based
Details: cAMP increase in CHO cells stably expressing GLP-1R; compounds run on one of the two cAMP assays
In short: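 EC50 values come from a sigmoidal fit of HTRF-detected cAMP rise versus log agonist concentration. GLP-1R-expressing CHO cells, equilibrated 1 h at 37 °C in HBSS with HEPES and BSA, received a 10-point compound dose series for 30 min before detection.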

T1 sequence (P43220 24-463): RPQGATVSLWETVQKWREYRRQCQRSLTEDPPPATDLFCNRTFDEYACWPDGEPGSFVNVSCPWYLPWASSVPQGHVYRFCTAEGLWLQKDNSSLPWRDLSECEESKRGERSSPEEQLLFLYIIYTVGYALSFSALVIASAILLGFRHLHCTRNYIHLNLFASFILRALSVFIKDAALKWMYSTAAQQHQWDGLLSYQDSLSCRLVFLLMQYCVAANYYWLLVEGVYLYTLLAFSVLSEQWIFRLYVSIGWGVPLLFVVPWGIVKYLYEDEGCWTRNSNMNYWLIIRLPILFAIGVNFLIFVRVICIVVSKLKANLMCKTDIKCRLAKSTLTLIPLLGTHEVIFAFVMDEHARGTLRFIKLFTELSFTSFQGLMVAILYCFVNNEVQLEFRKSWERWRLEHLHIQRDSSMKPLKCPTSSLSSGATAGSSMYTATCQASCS

| SMILES | EC50 [nM] |
| --- | --- |
| COc1nnc(COc2cccc(-c3cc(F)c(Cc4nc5c(F)cc(C(=O)O)cc5n4CC4(CF)CC4)cc3F)n2)s1 [Example 411, 2-(2,5-difluoro-4-(6-((5-methoxy-1,3,4-thiadiazol-2-yl)methoxy)pyridin-2-yl)benzyl)-4-fluoro-1-((1-(fluoromethyl)cyclopropyl)methyl)-1H-benzo[d]imidazole-6-carboxylic acid] | 0.315 |
| O=C(O)c1cc(F)c2nc(Cc3cc(F)c(-c4cccc(OCc5ncc(C(F)(F)F)s5)n4)cc3F)n(CC3(CF)CC3)c2c1 [Example 412, 2-(2,5-difluoro-4-(6-((5-(trifluoromethyl)thiazol-2-yl)methoxy)pyridin-2-yl)benzyl)-4-fluoro-1-((1-(fluoromethyl)cyclopropyl)methyl)-1H-benzo[d]imidazole-6-carboxylic acid] | 0.099 |
| CC1(C)COC[C@H]1n1c(Cc2cc(F)c(-c3cccc(OCc4ncc(C(F)(F)F)s4)n3)cc2F)nc2ccc(C(=O)O)cc21 [Example 414, (S)-2-(2,5-difluoro-4-(6-((5-(trifluoromethyl)thiazol-2-yl)methoxy)pyridin-2-yl)benzyl)-1-(4,4-dimethyltetrahydrofuran-3-yl)-1H-benzo[d]imidazole-6-carboxylic acid] | 0.318 |
| CC1(C)COC[C@H]1n1c(Cc2cc(F)c(-c3ccc(F)c(OCc4ncc(C(F)(F)F)s4)n3)cc2F)nc2ccc(C(=O)O)cc21 [Example 415, (S)-2-(2,5-difluoro-4-(5-fluoro-6-((5-(trifluoromethyl)thiazol-2-yl)methoxy)pyridin-2-yl)benzyl)-1-(4,4-dimethyltetrahydrofuran-3-yl)-1H-benzo[d]imidazole-6-carboxylic acid] | 0.189 |
| CC1(C)COC[C@H]1n1c(Cc2cc(F)c(-c3ccc(F)c(OCc4ncc(C(F)F)s4)n3)cc2F)nc2ccc(C(=O)O)cc21 [Example 416, (S)-2-(4-(6-((5-(difluoromethyl)thiazol-2-yl)methoxy)-5-fluoropyridin-2-yl)-2,5-difluorobenzyl)-1-(4,4-dimethyltetrahydrofuran-3-yl)-1H-benzo[d]imidazole-6-carboxylic acid] | 0.336 |
| CNC(=O)c1cc(Cl)c(COc2cccc(-c3cc(F)c(Cc4nc5c(F)cc(C(=O)O)cc5n4CC4(CF)CC4)cc3F)n2)cn1 [Example 417, 2-(4-(6-((4-chloro-6-(methylcarbamoyl)pyridin-3-yl)methoxy)pyridin-2-yl)-2,5-difluorobenzyl)-4-fluoro-1-((1-(fluoromethyl)cyclopropyl)methyl)-1H-benzo[d]imidazole-6-carboxylic acid] | 0.26 |
| CC1(C)COC[C@H]1n1c(Cc2cc(F)c(-c3ccnc(OCc4ccc(Cl)s4)n3)cc2F)nc2ccc(C(=O)O)cc21 [Example 418, (S)-2-(4-(2-((5-chlorothiophen-2-yl)methoxy)pyrimidin-4-yl)-2,5-difluorobenzyl)-1-(4,4-dimethyltetrahydrofuran-3-yl)-1H-benzo[d]imidazole-6-carboxylic acid] | 0.384 |
| CC1(C)COC[C@H]1n1c(Cc2cc(F)c(-c3cccc(OCc4sc(C#N)cc4F)n3)cc2F)nc2ccc(C(=O)O)cc21 [Example 419, (S)-2-(4-(6-((5-cyano-3-fluorothiophen-2-yl)methoxy)pyridin-2-yl)-2,5-difluorobenzyl)-1-(4,4-dimethyltetrahydrofuran-3-yl)-1H-benzo[d]imidazole-6-carboxylic acid] | 0.096 |
| CCOc1nnc(COc2nc(-c3cc(Cl)c(Cc4nc5ccc(C(=O)O)cc5n4[C@@H]4COCC4(C)C)cc3C)ccc2F)s1 [Example 420, (S)-2-(2-chloro-4-(6-((5-ethoxy-1,3,4-thiadiazol-2-yl)methoxy)-5-fluoropyridin-2-yl)-5-methylbenzyl)-1-(4,4-dimethyltetrahydrofuran-3-yl)-1H-benzo[d]imidazole-6-carboxylic acid] | 0.178 |
| CCOc1nnc(COc2nc(-c3cc(Cl)c(Cc4nc5c(F)cc(C(=O)O)cc5n4[C@@H]4COCC4(C)C)cc3C)ccc2F)s1 [Example 421, (S)-2-(2-chloro-4-(6-((5-ethoxy-1,3,4-thiadiazol-2-yl)methoxy)-5-fluoropyridin-2-yl)-5-methylbenzyl)-1-(4,4-dimethyltetrahydrofuran-3-yl)-4-fluoro-1H-benzo[d]imidazole-6-carboxylic acid] | 0.087 |
| CCOc1nnc(COc2nc(-c3cc(F)c(Cc4nc5c(F)cc(C(=O)O)cc5n4[C@@H]4COCC4(C)C)cc3C)ccc2F)s1 [Example 422, (S)-1-(4,4-dimethyltetrahydrofuran-3-yl)-2-(4-(6-((5-ethoxy-1,3,4-thiadiazol-2-yl)methoxy)-5-fluoropyridin-2-yl)-2-fluoro-5-methylbenzyl)-4-fluoro-1H-benzo[d]imidazole-6-carboxylic acid] | 0.066 |
| CCOc1nnc(COc2nc(-c3cc(F)c(Cc4nc5c(F)cc(C(=O)O)cc5n4[C@@H]4COCC4(C)C)cc3F)ccc2F)s1 [Example 423, (S)-1-(4,4-dimethyltetrahydrofuran-3-yl)-2-(4-(6-((5-ethoxy-1,3,4-thiadiazol-2-yl)methoxy)-5-fluoropyridin-2-yl)-2,5-difluorobenzyl)-4-fluoro-1H-benzo[d]imidazole-6-carboxylic acid] | 0.023 |
| CCOc1nnc(COc2nc(-c3cc(F)c(Cc4nc5ccc(C(=O)O)cc5n4[C@@H]4COCC4(C)C)cc3F)ccc2F)s1 [Example 424, (S)-1-(4,4-dimethyltetrahydrofuran-3-yl)-2-(4-(6-((5-ethoxy-1,3,4-thiadiazol-2-yl)methoxy)-5-fluoropyridin-2-yl)-2,5-difluorobenzyl)-1H-benzo[d]imidazole-6-carboxylic acid] | 0.027 |
| CC(F)(F)c1cnc(COc2cccc(-c3cc(F)c(Cc4nc5ccc(C(=O)O)cc5n4[C@@H]4COCC4(C)C)cc3F)n2)s1 [Example 425, (S)-2-(4-(6-((5-(1,1-difluoroethyl)thiazol-2-yl)methoxy)pyridin-2-yl)-2,5-difluorobenzyl)-1-(4,4-dimethyltetrahydrofuran-3-yl)-1H-benzo[d]imidazole-6-carboxylic acid] | 0.535 |
| Cc1cc(Cc2nc3c(F)cc(C(=O)O)cc3n2[C@@H]2COCC2(C)C)c(Cl)cc1-c1ccc(F)c(OCc2ncc(C(C)(F)F)s2)n1 [Example 426, (S)-2-(2-chloro-4-(6-((5-(1,1-difluoroethyl)thiazol-2-yl)methoxy)-5-fluoropyridin-2-yl)-5-methylbenzyl)-1-(4,4-dimethyltetrahydrofuran-3-yl)-4-fluoro-1H-benzo[d]imidazole-6-carboxylic acid] | 0.931 |
| Cc1cc(Cc2nc3ccc(C(=O)O)cc3n2[C@@H]2COCC2(C)C)c(Cl)cc1-c1ccc(F)c(OCc2ncc(C(C)(F)F)s2)n1 [Example 427, (S)-2-(2-chloro-4-(6-((5-(1,1-difluoroethyl)thiazol-2-yl)methoxy)-5-fluoropyridin-2-yl)-5-methylbenzyl)-1-(4,4-dimethyltetrahydrofuran-3-yl)-1H-benzo[d]imidazole-6-carboxylic acid] | 1.42 |
| Cc1cc(Cc2nc3ccc(C(=O)O)cc3n2[C@@H]2COCC2(C)C)c(Cl)cc1-c1cccc(OCc2ncc(C(C)(F)F)s2)n1 [Example 428, (S)-2-(2-chloro-4-(6-((5-(1,1-difluoroethyl)thiazol-2-yl)methoxy)pyridin-2-yl)-5-methylbenzyl)-1-(4,4-dimethyltetrahydrofuran-3-yl)-1H-benzo[d]imidazole-6-carboxylic acid] | 3.63 |
| COc1nnc(COc2nc(-c3ccc(Cc4nc5c(F)cc(C(=O)O)cc5n4[C@@H]4COCC4(C)C)c(F)c3)ccc2F)s1 [Example 429, (S)-1-(4,4-dimethyltetrahydrofuran-3-yl)-4-fluoro-2-(2-fluoro-4-(5-fluoro-6-((5-methoxy-1,3,4-thiadiazol-2-yl)methoxy)pyridin-2-yl)benzyl)-1H-benzo[d]imidazole-6-carboxylic acid] | 0.024 |
| CCOc1nnc(COc2cccc(-c3cc(F)c(Cc4nc5ccc(C(=O)O)cc5n4[C@@H]4COCC4(C)C)cc3F)n2)s1 [Example 430, (S)-1-(4,4-dimethyltetrahydrofuran-3-yl)-2-(4-(6-((5-ethoxy-1,3,4-thiadiazol-2-yl)methoxy)pyridin-2-yl)-2,5-difluorobenzyl)-1H-benzo[d]imidazole-6-carboxylic acid] | 0.039 |
| CC1(C)COC[C@H]1n1c(Cc2cc(F)c(-c3cccc(OCc4nnc(C5CC5)s4)n3)cc2F)nc2ccc(C(=O)O)cc21 [Example 431, (S)-2-(4-(6-((5-cyclopropyl-1,3,4-thiadiazol-2-yl)methoxy)pyridin-2-yl)-2,5-difluorobenzyl)-1-(4,4-dimethyltetrahydrofuran-3-yl)-1H-benzo[d]imidazole-6-carboxylic acid] | 0.195 |
| CC1(C)COC[C@H]1n1c(Cc2cc(F)c(-c3cccc(OCc4nnc(C(F)F)s4)n3)cc2F)nc2ccc(C(=O)O)cc21 [Example 432, (S)-2-(4-(6-((5-(difluoromethyl)-1,3,4-thiadiazol-2-yl)methoxy)pyridin-2-yl)-2,5-difluorobenzyl)-1-(4,4-dimethyltetrahydrofuran-3-yl)-1H-benzo[d]imidazole-6-carboxylic acid] | 0.093 |
| CC1(C)COC[C@H]1n1c(Cc2cc(F)c(-c3cccc(OCc4nnc(C(F)(F)F)s4)n3)cc2F)nc2ccc(C(=O)O)cc21 [Example 433, (S)-2-(2,5-difluoro-4-(6-((5-(trifluoromethyl)-1,3,4-thiadiazol-2-yl)methoxy)pyridin-2-yl)benzyl)-1-(4,4-dimethyltetrahydrofuran-3-yl)-1H-benzo[d]imidazole-6-carboxylic acid] | 0.413 |
| COc1nnc(COc2cccc(-c3cc(Cl)c(Cc4nc5ccc(C(=O)O)cc5n4[C@@H]4COCC4(C)C)cc3F)n2)s1 [Example 434, (S)-2-(2-chloro-5-fluoro-4-(6-((5-methoxy-1,3,4-thiadiazol-2-yl)methoxy)pyridin-2-yl)benzyl)-1-(4,4-dimethyltetrahydrofuran-3-yl)-1H-benzo[d]imidazole-6-carboxylic acid] | 0.087 |

Source: US20250312352A1, “GLP-1R MODULATING COMPOUNDS” (Gilead Sciences, Inc., priority 2021, published 2025)
